Source: patent publication US20240150301A1, “METHODS OF MODULATING ANDROGEN RECEPTOR CONDENSATES” (ETERN BIOPHARMA (SHANGHAI) CO., LTD., priority 2021, published 2024)
Entries after “also recorded” stand apart in the source; their conditions may differ.

Columns and labels:
Type in all cases: cell-based
AR F877L/T878A = molecular target: T1, AR F877L/T878A (Homo sapiens, UniProt P10275, F877L/T878A); test: Live-cell imaging of AR puncta (LLPS) in LNCaP cells, AR F877L/T878A-mEGFP; details: 10 μM compound, 1 nM DHT
T1 construct: expressed in transfected cells; host or cells: LNCaP
T1 sequence (P10275 1-920 F877L/T878A): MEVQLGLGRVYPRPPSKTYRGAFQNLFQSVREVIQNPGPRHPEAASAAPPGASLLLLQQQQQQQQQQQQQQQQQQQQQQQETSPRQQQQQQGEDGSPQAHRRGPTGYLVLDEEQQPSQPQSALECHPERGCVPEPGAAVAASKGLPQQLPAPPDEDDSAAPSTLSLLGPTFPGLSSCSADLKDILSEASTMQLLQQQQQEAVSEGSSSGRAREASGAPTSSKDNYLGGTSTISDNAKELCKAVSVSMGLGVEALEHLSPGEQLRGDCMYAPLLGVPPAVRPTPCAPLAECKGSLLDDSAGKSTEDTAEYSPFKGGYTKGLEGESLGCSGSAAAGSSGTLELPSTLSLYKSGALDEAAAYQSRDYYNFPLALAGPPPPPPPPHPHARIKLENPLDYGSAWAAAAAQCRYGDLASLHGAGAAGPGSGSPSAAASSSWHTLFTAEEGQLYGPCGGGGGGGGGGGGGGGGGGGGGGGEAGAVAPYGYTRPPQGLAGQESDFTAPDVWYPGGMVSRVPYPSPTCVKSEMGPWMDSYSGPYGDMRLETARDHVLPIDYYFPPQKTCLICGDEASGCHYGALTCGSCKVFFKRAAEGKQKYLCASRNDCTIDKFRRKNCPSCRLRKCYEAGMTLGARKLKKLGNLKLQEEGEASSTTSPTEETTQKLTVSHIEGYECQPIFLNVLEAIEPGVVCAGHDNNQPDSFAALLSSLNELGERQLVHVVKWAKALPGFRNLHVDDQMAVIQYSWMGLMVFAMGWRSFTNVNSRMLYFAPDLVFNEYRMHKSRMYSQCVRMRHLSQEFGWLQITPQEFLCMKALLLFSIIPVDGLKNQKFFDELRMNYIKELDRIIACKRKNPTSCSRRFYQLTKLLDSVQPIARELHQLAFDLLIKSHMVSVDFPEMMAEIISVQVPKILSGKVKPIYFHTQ
Description: (§1) Cells were grown on 24-well glass bottom plate (Cellvis, P24-1.5H-N) and images were taken with the Leica TCS SP8 confocal microscopy system using a 100× oil objective (NA=1.4). Cells were imaged on a heated stage (37° C.) and supplemented with warmed (37° C.) humidified air. The microscope was enclosed in an incubation chamber heated to 37° C.
(§2) For compounds treatment assay, LNCaP cells were transfected with an expression vector for AR (AR or AR F877L/T878A)-mEGFP using steroid hormone-free and phenol red-free RPMI media for 24 hours before compound treatment. After 10 μM compounds treatment for 3 hour, LNCaP cells were added with 1 nM DHT. For ligand-independent AR V7-mEGFP expressing LNCaP cells, starvation step is skipped and compounds were added 12 hours after transfection. The final concentration of DMSO was 0.1%. Cells were subjected to microscopic observation every 30 mins after DHT/compounds were added.
(§3) Data was analyzed by images collected from 100 representative fields in each group. The spots quantification was performed based on the area and intensity of the spots through green (AR-mEGFP) channel. Fluorescent images were processed and assembled into figures using LAS X (Leica) and Fiji.
(§4) After 10 μM compounds treatment for 3 hour, LNCaP cells were added with 1 nM DHT. […]

AR V7 = molecular target: T2, AR V7 (Homo sapiens, UniProt P10275); test: Live-cell imaging of AR puncta (LLPS) in LNCaP cells, AR V7-mEGFP; design: expressed in transfected cells; host or cells: LNCaP; details: 10 μM compound, no DHT
T2 sequence (P10275 1-644 isoform P10275-3): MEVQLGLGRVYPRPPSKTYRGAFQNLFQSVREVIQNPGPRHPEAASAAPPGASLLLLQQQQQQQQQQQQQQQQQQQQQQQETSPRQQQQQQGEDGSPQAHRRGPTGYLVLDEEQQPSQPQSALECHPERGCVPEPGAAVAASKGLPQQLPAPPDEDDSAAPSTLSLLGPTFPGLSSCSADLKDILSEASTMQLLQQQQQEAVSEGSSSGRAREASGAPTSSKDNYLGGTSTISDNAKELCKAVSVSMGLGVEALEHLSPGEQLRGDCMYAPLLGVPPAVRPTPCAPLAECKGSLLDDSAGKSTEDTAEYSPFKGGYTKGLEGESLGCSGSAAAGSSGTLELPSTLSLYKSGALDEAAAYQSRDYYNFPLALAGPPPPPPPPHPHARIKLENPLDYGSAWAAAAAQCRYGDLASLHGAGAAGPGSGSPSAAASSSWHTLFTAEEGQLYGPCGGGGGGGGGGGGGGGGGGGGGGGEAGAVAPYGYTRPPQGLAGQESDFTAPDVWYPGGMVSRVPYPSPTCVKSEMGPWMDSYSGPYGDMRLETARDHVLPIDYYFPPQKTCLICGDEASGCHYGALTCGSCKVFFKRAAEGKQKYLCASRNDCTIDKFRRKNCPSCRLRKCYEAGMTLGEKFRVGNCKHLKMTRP
Description: as §1, §2, §3, §4

VCaP cells = test: Cell proliferation assay (CellTiter-Glo), VCaP; details: Homo sapiens, 96 h, 4 days, read-out: VCaP IC50 AR-positive, AR-V7 positive (cell proliferation)
Description: To evaluate the effect of exemplary compounds on proliferation of AR/AR-V7-dependent prostate cancer cells, cell viability assay was performed in LNCaP (AR-positive), 22Rv1 (AR-positive; AR-V7 positive), VCaP (AR-positive; AR-V7 positive), and DU145 (AR-negative) cells, respectively.
LNCaP cells were seeded in charcoal stripped FBS/phenol red-free RPMI medium in 96-well plates for 24 h before pretreating for 1 h with test compounds prior to addition of 0.2 nM DHT for 4 days. 22Rv1 or VCaP cells were cultured in charcoal stripped FBS/phenol red-free RPMI medium for 24 h before addition of test compounds for 4 days. DU145 cells were seeded in complete medium for 24 h before addition of test compounds for 4 days. Cell proliferation was measured with CellTiter-Glo® Luminescent Cell Viability Assay (Promega). In LNCaP cells, DHT-dependent cell growth is calculated by measuring the difference between vehicle control (DMSO) cells treated with or without 0.2 nM DHT. The IC50 values were determined using the four parameter fit via GraphPad Prism graphing software.

IC50 (VCaP cells) [µM]	SMILES	puncta formation / LLPS of enzalutamide-resistant AR mutant F877L/T878A (AR F877L/T878A)	puncta formation / LLPS of AR V7 (AR V7)
	CC(C)(c1ccc(C#Cc2cnc(NS(C)(=O)=O)nc2)cc1)c1cc(Cl)c(OCCCl)c(C#N)c1 [Compound 60, N-(5-((4-(2-(3-chloro-4-(2-chloroethoxy)-5-cyanophenyl)propan-2-yl)phenyl)ethynyl)pyrimidin-2-yl)methanesulfonamide]	could suppress the phase separation; also recorded: abolished the puncta formation; also recorded: impaired the LLPS	could suppress the phase separation; also recorded: abolished the puncta formation; also recorded: significantly impaired the LLPS
> 20	CC(C)(c1ccc(OCc2ccnc(NS(C)(=O)=O)n2)cc1)c1cc(Cl)c(OCCCl)c(C#N)c1 [Compound AA, N-(4-((4-(2-(3-chloro-4-(2-chloroethoxy)-5-cyanophenyl)propan-2-yl)phenoxy)methyl)pyrimidin-2-yl) methane sulfonamide, reference compound]		
